The values that follow come from US10071983B2, “Activatable fluorogenic compounds and uses thereof as near infrared probes” (Ramot at Tel-Aviv University Ltd., priority 2011, dated 2018).

Series [1] can be described thus: NIR fluorescence emission spectrum of dye compounds. Format: physicochemical. To be noted: for λmax: Table 1, λmax (fluorescence emission). An excerpt: (§1) Compound 1 (which generates the dye compound QCy7 deprotonation) was obtained as an orange crystalline powder. FIGS. 4A and 4B present the UV-Vis spectrum of Compound 1 (FIG. 4A), compared to that of the acetate Compound 3 (FIG. 4B). […] The obtained large stokes shift between the excitation and the emission wavelengths of about 150 nm is a desirable feature for fluorescence probes, which assists in increasing the signal-to-noise ratio.
(§2) FIG. 5 presents the data obtained for fluorescence intensity vs. wavelength of standard sample (Cresyl violet; FIG. 5A), and test sample (QCy7; FIG. 5B), at the indicated concentrations. The measurements were performed in a 1 cm cuvette using Fluoromax-3 fluorometer; at an excitation wavelength of 560 nm. Cresyl violet was dissolved in methanol and Compound 1 in PBS 7.4 (just generating QCy7).
(§3) FIG. 8 presents the data obtained for fluorescence intensity vs. wavelength of standard sample (QCy7; FIG. 8A), and test sample (Sulfo-QCy7, generated from Compound 9; FIG. 8B), at the indicated concentrations. The measurements were performed at a 96-wells plate reader using Fluoromax-3 fluorometer; at an excitation wavelength of 560 nm. Both samples were dissolved in PBS 7.4.

The nature of series [2]: NIR fluorescence assay of probe Compound 4 with hydrogen peroxide. How it is done: In order to evaluate the NIR fluorescence obtained by probe Compound 4 upon reaction with hydrogen peroxide under physiological conditions, the probe was incubated in PBS 7.4 at 37° C., in the presence and absence of hydrogen peroxide at varying concentrations, and the emitted NIR fluorescence was measured by a spectrophotometer (M2 of Molecular Device). The results, presented in FIG. 20A, indicate full conversion of probe Compound 4 to sulfo-QCy7 within 30 minutes (red plot).
The sensitivity of probe Compound 4 towards detection of hydrogen peroxide was then evaluated.

Series [3] in a line: In vivo imaging of exogenous hydrogen peroxide (premixed probe injected). The arrangement: species or system mice. How it is done: Initially, as a simple control experiment, a premixed solution of probe 4 with hydrogen peroxide was injected into the peritoneal cavity, and the mice were imaged in a CRI Maestro™ non-invasive fluorescence imaging system.
Next, it was tested whether probe Compound 4 can be used to differentiate in vivo various concentrations of hydrogen peroxide in order to test the system's sensitivity. Therefore, two different concentrations of hydrogen peroxide were premixed with probe Compound 4; immediately injected intramuscularly, into the leg, and then imaged by the CRI Maestro™ non-invasive fluorescence imaging system.

Series [4] has as its system endogenously produced hydrogen peroxide. In words: In vivo imaging of endogenous hydrogen peroxide, LPS-induced acute inflammation. The arrangement: species or system Balb/c mice. The procedure: To induce acute inflammation in Balb/c mice, 1 ml (0.1 mg/ml) of LPS (Lipopolysaccharides from Escherichia coli 055:B5, Sigma) was injected into the peritoneal cavity of Balb/c mice as previously described [Lee, D. et al. Nat. Mater. 6, 765-769 (2007)]. Six hours later, additional i.p. injections of 400 μl of 1 mM of the tested probe compound or PBS (as control) were performed. Second control group of mice was injected i.p. with 1 ml of PBS followed by additional i.p. injection of 400 μl PBS. Fifteen minutes later, mice were anesthetized using ketamine (100 mg/kg) and xylazine (12 mg/kg), treated with a depilatory cream (Veet®), and placed inside CRI Maestro non-invasive fluorescence imaging system. Multispectral image-cubes were acquired through 600-800 nm spectral range in 10 nm steps using excitation (595 nm) and emission (635 nm longpass) filter set. Mice autofluorescence and undesired background signals were eliminated by spectral analysis and linear unmixing algorithm. Activated probe-fluorescence unmixed specific signal was quantified as total signal of photons/exposure time (sec). Data is expressed as mean±s.d.
The, the use of probe Compound 4 for visualizing endogenously-produced hydrogen peroxide was tested. […] Mater. 6, 765-9 (2007)]. Mice were injected intraperitoneally (i.p.) with LPS (1 ml of 0.1 mg/ml), followed 6 hours later by additional i.p. injection of probe Compound 4 (400 μl of 1 mM) and were thereafter imaged by the CRI Maestro™ non-invasive fluorescence imaging system.

Series [5] can be described thus: NIR fluorescence emission spectrum of dye compounds. Format: physicochemical. Particulars: PBS 7.4 [50 μM], excitation 570 nm, cutting filter >690 nm.
Series [6] in a line: UV-Vis absorption spectrum of dye compounds. Format: physicochemical. Particulars: for λmax: Table 1, first λmax column (absorption peaks).
Source text: as §1
Compound 14 is composed from a phenol latent donor and two different acceptors; a picolinium moiety and an indolium moiety (see, Scheme 3). Deprotonation of the phenolic dye leads to formation of new donor-acceptor pair fluorochrome.
Compound 18 is composed of a phenol latent donor and two identical acceptors based on a picolinium moiety (see, Scheme 4). Deprotonation of the phenolic form leads to formation of new donor-acceptor pair fluorochrome.
Compound 25 is composed of a phenol latent donor and three acceptors; two picolinium moieties and one indolium moiety (see, Scheme 5). Deprotonation of the phenolic compound leads to formation of three resonance donor-two-acceptor structures of new fluorochrome.
The chemical 2D structures and spectroscopic data obtained for exemplary dye molecules according to embodiments of the present invention are presented in Table 1.

The nature of series [7]: Fluorescence quantum yield calculation against a reference dye. To be noted: PBS 7.4. Format: physicochemical. The procedure:
Cresyl-violet-perchlorate (as presented hereinbelow) was chosen as a reference compound for the determination of QCy7 quantum yield.
as §2
Conversion to the absolute quantum yield is achieved through the following equation: ΦX=ΦST(GradX/GradST)(η^2X/η^2ST) where the subscripts ST and X denote standard and test respectively, Φ is the fluorescence quantum yield, Grad the gradient from the plot of integrated fluorescence intensity vs. absorbance (see, FIG. 6), and η the refractive index of the solvents. ΦCresyl-violet=0.55 [Stefan et al. ([…]) J. Phys. Chem. 86, 1738-1742].
QCy7 was chosen as a reference compound for the determination of Sulfo-QCy7 quantum yield.
as §3
The absolute quantum yield was calculated as described hereinabove and found to be: […]

Series [8] in a line: Aqueous stability in PBS 7.4 at 37° C., NIR emission over 72 hours. Format: physicochemical. Particulars: PBS 7.4 [25 μM]. How it is done:
The aqueous stability of the cyanine-like dye compound presented herein was tested and compared to that of the cyanine molecule Cy7.
All tested compounds were incubated in PBS 7.4 [25 μM], at 37° C., and their NIR fluorescent emission was monitored over 72 hours. FIG. 15 presents the normalized intensity of NIR fluorescent emission of dyes generated from Compound 9 (green circles; Sulfo-QCy7), Compound 14 (blue diamonds), Compound 18 (red squares), Compound 25 (orange triangles) and Compound 1 (blank navy squares; QCy7) as a function of incubation time.

A short description of series [9]: pKa measurement by UV-Vis absorbance as a function of pH. The series is classed as physicochemical. To be noted: buffers at the indicated pH; 50 μM in buffers, phenol form. How it is done: The pKa values of exemplary compounds according to some embodiments of the present invention, Compounds 14, 18 and 25, was measured by monitoring their UV-Vis absorbance as a function of the environment pH. The tested compounds, at a concentration of 50 μM were dissolved in the respective buffers at the indicated pH and their absorbance was measured.

With `CC(=O)Oc1ccc(/C=C/C2=[N+](C)c3ccccc3C2(C)C)cc1/C=C/C1=[N+](C)c2ccccc2C1(C)C` [Compound 3], the “fluorescence emission in the NIR region of masked derivative” value in series [1] (PBS 7.4 [100 μM], λex=560 nm) is on record as “did not show any fluorescence emission in the NIR region”.

For the compound `CC1(C)C(/C=C/c2ccc(OCc3ccc(B(O)O)cc3)c(/C=C/C3=[N+](CCCS(=O)(=O)[O-])c4ccccc4C3(C)C)c2)=[N+](CCCS(=O)(=O)[O-])c2ccccc21` [Compound 4], the “NIR fluorescence in the absence of hydrogen peroxide” value in series [2] (PBS 7.4, 37° C.) is on record as “No NIR fluorescence is observed”. The “time to full conversion of probe to sulfo-QCy7” value in series [2] (probe [50 μM], hydrogen peroxide [50 μM], PBS 7.4, 37° C.) is ≤ 30 min. The “detectable hydrogen peroxide concentration” value in series [2] (probe [100 μM]) is “below 1 μM”. Also, the “NIR fluorescence in vivo, probe premixed with hydrogen peroxide” value in [3] (injected into the peritoneal cavity) is reported as “can generate NIR fluorescence in vivo image”. Besides, the “NIR fluorescence in vivo, probe only” value in series [3] (injected into the peritoneal cavity, no hydrogen peroxide) was “did not show any detectable NIR fluorescence”. Also, the “dependence of NIR fluorescence intensity on hydrogen peroxide concentration in vivo” value in series [3] (premixed, injected intramuscularly into the leg) is on record as “dependent on the hydrogen peroxide initial concentration”. In [4] (LPS i.p., probe 400 μl of 1 mM i.p. 6 hours later), the “signal-to-noise ratio of NIR fluorescence intensity vs control group” value is “about 10 fold”. In addition, the “NIR fluorescence signal, LPS-treated vs non-LPS treated mice” value in series [4] (LPS i.p., probe i.p. 6 hours later) is on record as “significantly greater intensity of NIR fluorescence signal”. In series [4] (no LPS), the “NIR fluorescence in mice treated only with probe” value was “slight NIR fluorescence”. In addition, the “appearance under NIR imaging camera” value in [5] is recorded as “clearly transparent”.

In [1], `C[n+]1ccc(/C=C/c2ccc(O)c(/C=C/c3cc[n+](C)cc3)c2)cc1.[I-].[I-]` [Compound 10] showed a λmax of 720 nm.

With `C[n+]1ccc(/C=C/c2ccc(O)c(/C=C/c3cc[n+](C)cc3C#N)c2)c(C#N)c1.[I-].[I-]` [Compound 11], in series [1], the λmax was 730 nm.

As to `C[n+]1ccc(/C=C/c2ccc(O)c(/C=C/c3cc[n+](C)cc3[N+](=O)[O-])c2)c([N+](=O)[O-])c1.[I-].[I-]` [Compound 12], the results for the λmax in series [6] and in series [1] were 350 nm and “No fluores- cence”, respectively.

As to `C[n+]1ccc(/C=C/c2ccc(O)c(/C=C/c3cc[n+](C)c4ccccc34)c2)c2ccccc21.[I-].[I-]` [Compound 13], the λmax in series [6] is listed as 550 nm; in series [1], “No fluores- cence”.

Turning to `C[n+]1ccc(/C=C/c2cc(/C=C/C3=[N+](CCCS(=O)(=O)[O-])c4ccccc4C3(C)C)ccc2O)cc1.[I-]` [Compound 14], the “UV-Vis absorption peak maximum” value in series [6] (PBS 7.4) came out at 550 nm. The “fluorescence emission peak in the NIR region” value in [1] (PBS 7.4) was 680 nm. This compound also registered a λmax in series [1] of 650 nm. Also, in series [7], the quantum yield is 17%. In [8], the “aqueous stability compared with Cy7” value is reported as “increase aqueous stability than that of Cy7” and the “loss of NIR fluorescence during incubation period” value is “did not show any loss of NIR fluorescence”. Also, the pKa (as a rule, the pH at which an ionisable group is half protonated) in [9] came to 2.9.

On to `CC(C)(C)c1cc(/C=C/c2ccc(O)c(/C=C/c3cc(C(C)(C)C)[o+]c(C(C)(C)C)c3)c2)cc(C(C)(C)C)[o+]1` [Compound 15], for which the λmax entry in series [1] is reported as “No fluores- cence”.

Regarding `C[n+]1ccc(/C=C/c2cc(/C=C/c3cc(C(C)(C)C)[o+]c(C(C)(C)C)c3)ccc2O)cc1.I` [Compound 16], the λmax in series [6] was determined as 580 nm; in series [1] it was 730 nm.

On to `C[n+]1ccc(/C=C/c2ccc(O)c(/C=C/c3cc[n+](C)cc3S(=O)(=O)[O-])c2)c(S(=O)(=O)[O-])c1` [Compound 17], for which the λmax in [1] is on record as 730 nm. Also, in series [7], the quantum yield is on record as 2.6%.

In series [1], `CCOC(=O)c1cc(/C=C/c2cc[n+](C)cc2)c(O)c(/C=C/c2cc[n+](C)cc2)c1` [Compound 19] displayed a λmax of 660 nm.

On to `CCOC(=O)c1cc(/C=C/c2cc[n+](C)c3ccccc23)c(O)c(/C=C/c2cc[n+](C)c3ccccc23)c1` [Compound 20], for which the λmax entry in series [1] is “No fluores- cence”.

As to `CCOC(=O)c1cc(/C=C/c2cc[n+](C)cc2C#N)c(O)c(/C=C/c2cc[n+](C)cc2C#N)c1` [Compound 21], the λmax in [1] turned out to be 730 nm.

In turn, `C[n+]1ccc(/C=C/c2cc(C=O)cc(/C=C/c3cc[n+](C)cc3)c2O)cc1` [Compound 22] registered a λmax in series [1] of 650 nm. For the same compound, the quantum yield in series [7] is 7%.

In the case of `C[n+]1ccc(/C=C/c2cc([N+](=O)[O-])cc(/C=C/c3cc[n+](C)cc3)c2O)cc1` [Compound 23], the λmax in [1] was found to be 600 nm.

`C[n+]1ccc(/C=C/c2cc(Br)cc(/C=C/c3cc[n+](C)cc3)c2O)cc1` [Compound 27] gave a λmax in series [1] of 720 nm. Also, the quantum yield in series [7] is given as 2.9%.

Turning to `C[n+]1ccc(/C=C/c2cc(C(=O)O)cc(/C=C/c3cc[n+](C)cc3)c2O)cc1` [Compound 29], in [1], the λmax is listed as 700 nm. Besides, in [7], the quantum yield is listed as 2%.

In [1], `CC1(C)C(/C=C/c2cc(/C=C/C3=[N+](CCCS(=O)(=O)[O-])c4ccccc4C3(C)C)c(O)c(/C=C/C3=[N+](CCCS(=O)(=O)[O-])c4ccccc4C3(C)C)c2)=[N+](CCCS(=O)(=O)[O-])c2ccccc21` [Compound 30] showed a λmax of 710 nm. Besides, the quantum yield in series [7] is on record as 16%.

`C[n+]1ccc(/C=C/c2cc(/C=C/c3cc[n+](C)cc3)c(O)c(/C=C/c3cc[n+](C)cc3)c2)cc1.I.I` [Compound 31] showed a λmax in series [1] of 720 nm.
